From US20260183300A1, “PHARMACEUTICAL COMPOSITION AND USE THEREOF” (priority 2022, published 2026)

What was measured:
[1] = studies have shown; cited from earlier work
THG15 cells = test: Cell viability assay (CCK-8); format: cell-based; details: Homo sapiens, 72 hours, estimated IC50, read-out: IC50 (half maximal inhibitory concentration), cell viability
Method: Patient-derived tumor cell were obtained with the approval of the Ethics Committee of the Beijing Tsinghua Changgung Hospital in compliance with informed consent of the patient and their family. […] Briefly, the tissues were mechanically minced and then digested with 0.1% trypsin (Hyclone) and 10 U/ml DNasel (Roche) at 37° C. for 45 min. The tissues were passed through a 100-μm cell strainer after lysis of red blood cells and several washes. Cells that that passed through the filter were collected and added with EF medium composed of Neurobasal medium, 3 mM L-glutamine, 1×B27 supplement, 0.5×N2 supplement, 2 μg/mL heparin, 20 ng/mL recombinant human EGF (Sigma-Aldrich), 20 ng/mL recombinant human FGF2 (Sigma-Aldrich), and 0.5×antibiotic antimycotic complex. Fresh EF medium was replenished every 3 days during cell culture. Tumor cell spheres were dissociated using NeuroCult Chemical Dissociation kit (StemCell), and cells were passaged.
Panobinostat (LBH589) and Tazemetostat (EPZ-6438) were purchased from Selleck Chemicals and dissolved in 0.1% DMSO before use. About 5,000 THG15 cells were seeded into each well of a 96-well plate and cultured in EF medium for 24 hours prior to drug intervention. […] According to the instructions, cell viability was determined by using a CCK-8 kit (GK10001), and the optical density was measured at 450 nm using a SPARK reader (TECAN). […]

## Cc1[nH]c2ccccc2c1CCNCc1ccc(/C=C/C(=O)NO)cc1 [panobinostat, Panobinostat]
[1]
  penetration of the blood-brain barrier: can penetrate the blood-brain barrier
THG15 cells
  IC50: ~1 µM

## CCN(c1cc(-c2ccc(CN3CCOCC3)cc2)cc(C(=O)NCc2c(C)cc(C)[nH]c2=O)c1C)C1CCOCC1 [tazemetostat, Tazemetostat]
THG15 cells
  IC50: ~50 µM
